Results reported in the supplement of paper PMC10307832.

Columns and labels:
Test in all cases: relative viability (nuclei count vs DMSO), 5 days (fraction); higher = more cells survive
Linifanib + Trametinib = compound: Cc1ccc(F)c(NC(=O)Nc2ccc(-c3cccc4[nH]nc(N)c34)cc2)c1 [Linifanib] + CC(=O)Nc1cccc(-n2c(=O)n(C3CC3)c(=O)c3c(Nc4ccc(I)cc4F)n(C)c(=O)c(C)c32)c1 [Trametinib] (partner 0.02 µM)
Method in brief: (§1)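 After 5 days of treatment, lung cancer cells in 1536-well plates were fixed and stained in a single step (final 0.05% Triton X-100, 1% formaldehyde, 1 ug/ml Hoechst) and their nuclei counted on 4× images. Treatment had been applied by pin tool the day after seeding as one drug alone or as a fixed anchor-drug dose with five library-drug doses (not always all listed) in √10 steps. Relative viability is the nuclei count of treated wells divided by that of vehicle wells, and values are medians of duplicate plates.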

Linifanib + Bortezomib = compound: Cc1ccc(F)c(NC(=O)Nc2ccc(-c3cccc4[nH]nc(N)c34)cc2)c1 [Linifanib] + CC(C)C[C@H](NC(=O)[C@H](Cc1ccccc1)NC(=O)c1cnccn1)B(O)O [Bortezomib] (partner 0.002 µM)
Method in brief: as §1

Linifanib + Foretinib = compound: Cc1ccc(F)c(NC(=O)Nc2ccc(-c3cccc4[nH]nc(N)c34)cc2)c1 [Linifanib] + COc1cc2c(Oc3ccc(NC(=O)C4(C(=O)Nc5ccc(F)cc5)CC4)cc3F)ccnc2cc1OCCCN1CCOCC1 [Foretinib] (partner 0.25 µM)
Method in brief: as §1

Linifanib + OSI-027 = compound: Cc1ccc(F)c(NC(=O)Nc2ccc(-c3cccc4[nH]nc(N)c34)cc2)c1 [Linifanib] + COc1cccc2cc(-c3nc([C@H]4CC[C@H](C(=O)O)CC4)n4ncnc(N)c34)[nH]c12 [OSI-027] (partner 0.5 µM)
Method in brief: as §1

Linifanib + Alpelisib = compound: Cc1ccc(F)c(NC(=O)Nc2ccc(-c3cccc4[nH]nc(N)c34)cc2)c1 [Linifanib] + Cc1nc(NC(=O)N2CCC[C@H]2C(N)=O)sc1-c1ccnc(C(C)(C)C(F)(F)F)c1 [Alpelisib] (partner 2 µM)
Method in brief: as §1

Linifanib + Lapatinib = compound: Cc1ccc(F)c(NC(=O)Nc2ccc(-c3cccc4[nH]nc(N)c34)cc2)c1 [Linifanib] + CS(=O)(=O)CCNCc1ccc(-c2ccc3ncnc(Nc4ccc(OCc5cccc(F)c5)c(Cl)c4)c3c2)o1 [Lapatinib] (partner 2 µM)
Method in brief: as §1

Cell Line	relative viability (Linifanib + Trametinib; first compound 0.03162 µM)	relative viability (Linifanib + Trametinib; first compound 0.1 µM)	relative viability (Linifanib + Trametinib; first compound 0.3162 µM)	relative viability (Linifanib + Bortezomib; first compound 0.03162 µM)	relative viability (Linifanib + Bortezomib; first compound 0.1 µM)	relative viability (Linifanib + Bortezomib; first compound 0.3162 µM)	relative viability (Linifanib + Foretinib; first compound 0.03162 µM)	relative viability (Linifanib + Foretinib; first compound 0.1 µM)	relative viability (Linifanib + Foretinib; first compound 0.3162 µM)	relative viability (Linifanib + OSI-027; first compound 0.03162 µM)	relative viability (Linifanib + OSI-027; first compound 0.1 µM)	relative viability (Linifanib + OSI-027; first compound 0.3162 µM)	relative viability (Linifanib + Alpelisib; first compound 0.03162 µM)	relative viability (Linifanib + Alpelisib; first compound 0.1 µM)	relative viability (Linifanib + Alpelisib; first compound 0.3162 µM)	relative viability (Linifanib + Lapatinib; first compound 0.03162 µM)	relative viability (Linifanib + Lapatinib; first compound 0.1 µM)	relative viability (Linifanib + Lapatinib; first compound 0.3162 µM)
LCLC-103H	0.721	0.669	0.64	1.19	1.16	1.15	0.629	0.753	0.803	0.514	0.481	0.408	0.838	0.927	0.894	–	–	–
201T	0.746	0.736	0.758	1.05	1.09	1.08	0.968	1.22	1.1	0.671	0.86	0.745	1	1.06	0.978	1.07	1.03	1.05
NCI-H1792	0.389	0.459	0.439	0.93	0.975	0.937	–	–	–	0.526	0.701	0.663	0.631	0.738	0.776	0.961	0.973	0.891
LXF-289	0.749	0.695	0.624	1.04	1.01	0.952	1.09	0.975	0.936	0.905	0.829	0.774	1.11	1.04	1.02	0.914	0.936	0.831
LCLC-97TM1	0.2	0.179	0.16	0.866	0.868	0.56	0.865	0.961	0.852	0.718	0.624	0.563	0.284	0.292	0.246	1.51	0.984	0.858
NCI-H1395	0.943	0.882	0.933	–	–	–	0.967	1.05	0.998	0.611	0.756	0.573	1.2	1.02	1.08	0.986	0.982	1.14
CAL-12T	0.338	0.463	0.357	1.06	1.01	0.8	1.14	1.21	1.14	0.761	0.736	0.73	1.27	1.3	1.28	0.75	0.819	0.534
NCI-H1975	0.298	0.525	0.355	0.504	0.376	0.389	0.892	1.01	1.02	0.675	0.753	0.706	0.631	0.715	0.65	0.898	1.11	0.874
EKVX	0.381	0.411	0.392	0.863	1.03	0.698	0.787	0.886	0.686	0.756	0.707	0.712	0.9	1.14	0.831	0.209	0.24	0.222
